Experiment: xn = mol fraction of the nth substance listed
Details: for mass density / viscosity: 100 kPa, Liquid; for mass density: Vibrating tube method; for surface tension liquid-gas: Drop volume

CCC12CC3CC(CC(C3)C1)C2 [1-ethyladamantane] + CCCCCCCO
Details | mass density [kg/m3] | surface tension liquid-gas [mN/m] | viscosity [mPa·s]
293.15 K, x2 = 0 | 937.11 | – | 6.371
293.15 K, x2 = 0.0999 | 927.59 | – | 5.91
293.15 K, x2 = 0.1999 | 917.88 | – | 5.707
293.15 K, x2 = 0.2988 | 907.92 | – | 5.62
293.15 K, x2 = 0.3991 | 897.36 | – | 5.584
293.15 K, x2 = 0.4998 | 886.28 | – | 5.647
293.15 K, x2 = 0.5995 | 874.78 | – | 5.843
293.15 K, x2 = 0.7 | 862.6 | – | 6.077
293.15 K, x2 = 0.8002 | 849.85 | – | 6.41
293.15 K, x2 = 0.9 | 836.45 | – | 6.719
298.15 K, x2 = 0 | 933.58 | 29.87 | 5.565
298.15 K, x2 = 0.0999 | 924.02 | 29.66 | 5.136
298.15 K, x2 = 0.1999 | 914.26 | 29.21 | 4.958
298.15 K, x2 = 0.2988 | 904.28 | 28.87 | 4.86
298.15 K, x2 = 0.3991 | 893.7 | 28.72 | 4.836
298.15 K, x2 = 0.4998 | 882.65 | 28.42 | 4.859
298.15 K, x2 = 0.5995 | 871.16 | 28.1 | 4.989
298.15 K, x2 = 0.7 | 859.01 | 27.75 | 5.156
298.15 K, x2 = 0.8002 | 846.29 | 27.23 | 5.422
298.15 K, x2 = 0.9 | 832.93 | 26.74 | 5.683
303.15 K, x2 = 0 | 929.99 | – | 4.903
303.15 K, x2 = 0.0999 | 920.37 | – | 4.506
303.15 K, x2 = 0.1999 | 910.61 | – | 4.337
303.15 K, x2 = 0.2988 | 900.6 | – | 4.238
303.15 K, x2 = 0.3991 | 890.03 | – | 4.215
303.15 K, x2 = 0.4998 | 878.99 | – | 4.215
303.15 K, x2 = 0.5995 | 867.51 | – | 4.306
303.15 K, x2 = 0.7 | 855.39 | – | 4.424
303.15 K, x2 = 0.8002 | 842.7 | – | 4.63
303.15 K, x2 = 0.9 | 829.37 | – | 4.841
308.15 K, x2 = 0 | 926.4 | – | 4.348
308.15 K, x2 = 0.0999 | 916.7 | – | 3.965
308.15 K, x2 = 0.1999 | 906.92 | – | 3.814
308.15 K, x2 = 0.2988 | 896.92 | – | 3.722
308.15 K, x2 = 0.3991 | 886.35 | – | 3.692
308.15 K, x2 = 0.4998 | 875.31 | – | 3.681
308.15 K, x2 = 0.5995 | 863.84 | – | 3.742
308.15 K, x2 = 0.7 | 851.75 | – | 3.824
308.15 K, x2 = 0.8002 | 839.08 | – | 3.985
308.15 K, x2 = 0.9 | 825.79 | – | 4.154
313.15 K, x2 = 0 | 922.81 | – | 3.878
313.15 K, x2 = 0.0999 | 913.02 | – | 3.516
313.15 K, x2 = 0.1999 | 903.22 | – | 3.376
313.15 K, x2 = 0.2988 | 893.21 | – | 3.286
313.15 K, x2 = 0.3991 | 882.64 | – | 3.251
313.15 K, x2 = 0.4998 | 871.61 | – | 3.235
313.15 K, x2 = 0.5995 | 860.15 | – | 3.275
313.15 K, x2 = 0.7 | 848.08 | – | 3.331
313.15 K, x2 = 0.8002 | 835.43 | – | 3.454
313.15 K, x2 = 0.9 | 822.17 | – | 3.589
318.15 K, x2 = 0 | 919.21 | – | 3.478
318.15 K, x2 = 0.0999 | 909.33 | – | 3.135
318.15 K, x2 = 0.1999 | 899.51 | – | 3.003
318.15 K, x2 = 0.2988 | 889.49 | – | 2.922
318.15 K, x2 = 0.3991 | 878.91 | – | 2.882
318.15 K, x2 = 0.4998 | 867.88 | – | 2.859
318.15 K, x2 = 0.5995 | 856.43 | – | 2.884
318.15 K, x2 = 0.7 | 844.37 | – | 2.919
318.15 K, x2 = 0.8002 | 831.75 | – | 3.012
318.15 K, x2 = 0.9 | 818.53 | – | 3.12
323.15 K, x2 = 0 | 915.62 | – | 3.134
323.15 K, x2 = 0.0999 | 905.62 | – | 2.811
323.15 K, x2 = 0.1999 | 895.76 | – | 2.687
323.15 K, x2 = 0.2988 | 885.74 | – | 2.608
323.15 K, x2 = 0.3991 | 875.17 | – | 2.569
323.15 K, x2 = 0.4998 | 864.13 | – | 2.54
323.15 K, x2 = 0.5995 | 852.69 | – | 2.555
323.15 K, x2 = 0.7 | 840.64 | – | 2.573
323.15 K, x2 = 0.8002 | 828.04 | – | 2.644
323.15 K, x2 = 0.9 | 814.85 | – | 2.728
328.15 K, x2 = 0 | 912.01 | – | 2.838
328.15 K, x2 = 0.0999 | 901.91 | – | 2.531
328.15 K, x2 = 0.1999 | 892.03 | – | 2.413
328.15 K, x2 = 0.2988 | 881.97 | – | 2.338
328.15 K, x2 = 0.3991 | 871.39 | – | 2.299
328.15 K, x2 = 0.4998 | 860.35 | – | 2.267
328.15 K, x2 = 0.5995 | 848.92 | – | 2.271
328.15 K, x2 = 0.7 | 836.88 | – | 2.28
328.15 K, x2 = 0.8002 | 824.29 | – | 2.333
328.15 K, x2 = 0.9 | 811.13 | – | 2.399
333.15 K, x2 = 0 | 908.41 | – | 2.581
333.15 K, x2 = 0.0999 | 898.19 | – | 2.291
333.15 K, x2 = 0.1999 | 888.26 | – | 2.178
333.15 K, x2 = 0.2988 | 878.19 | – | 2.106
333.15 K, x2 = 0.3991 | 867.59 | – | 2.066
333.15 K, x2 = 0.4998 | 856.55 | – | 2.033
333.15 K, x2 = 0.5995 | 845.11 | – | 2.03
333.15 K, x2 = 0.7 | 833.08 | – | 2.033
333.15 K, x2 = 0.8002 | 820.51 | – | 2.07
333.15 K, x2 = 0.9 | 807.38 | – | 2.121

Source: the NIST ThermoML archive (doi:10.1021/je500381c)
